Biological target: T1, Retinoic acid receptor RXR-alpha (Homo sapiens, UniProt P19793)
T1 sequence (P19793 whole entry): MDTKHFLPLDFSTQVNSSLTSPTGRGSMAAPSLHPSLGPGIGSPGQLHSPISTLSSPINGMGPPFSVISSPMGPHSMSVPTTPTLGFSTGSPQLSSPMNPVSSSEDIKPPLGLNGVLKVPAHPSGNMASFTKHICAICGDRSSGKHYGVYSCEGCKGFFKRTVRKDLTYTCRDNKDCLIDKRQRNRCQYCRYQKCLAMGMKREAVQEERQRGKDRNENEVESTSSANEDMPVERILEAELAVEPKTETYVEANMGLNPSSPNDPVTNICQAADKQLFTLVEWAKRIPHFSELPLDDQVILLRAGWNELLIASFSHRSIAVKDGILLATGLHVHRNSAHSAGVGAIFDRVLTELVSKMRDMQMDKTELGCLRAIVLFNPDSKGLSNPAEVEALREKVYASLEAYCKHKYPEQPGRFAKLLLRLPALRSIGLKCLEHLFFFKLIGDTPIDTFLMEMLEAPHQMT
Test: Displacement of CU-6PMN from human RXRalpha LBD incubated for 2 hrs by fluorescence based assay; call rule not given here

Compound | Ki (read-out: Ki) [µM] | Ki
CC/C=C\C/C=C\C/C=C\C/C=C\C/C=C\CCCC(=O)O [ICOSAPENT] | 7.63 | –
CCCCCCCCCCCCCCCC(=O)O [PALMITIC ACID] | – | Not Active

Reference: ChEMBL document CHEMBL4414573, “Competitive Binding Assay with an Umbelliferone-Based Fluorescent Rexinoid for Retinoid X Receptor Ligand Screening” (J Med Chem, 2019)
